From patent US4603123A, “Compounds having antiinflammatory activity, obtained by complexation of piroxican with β-cyclodextrin, and pharmaceutical compositions containing them” (priority 1984, dated 1986)
Values after ≈ are worked out from the molar mass of the structure shown. Where two headings read alike, the source gives them in different places.

How the values were obtained:
[1] = system: phenylquinone induced writhing; experiment: Phenylquinone induced writhing test (kinetic of the analgesic activity); format: in vivo, female NMRI mice; conditions: mouse, oral, 0.5 mg/kg of active substance
Protocol: The employed experimental model is a slight modification of that described by Siegmund, J. Pharm. Exptl. Ther., 119, 184, 1957.
Female NMRI mice, housed under standard conditions, fastened for 18 hours, were employed as the test animals. Water was available ad libitum.
The compounds under study were orally administered by oesophageal gavage, suspended in an aqueous solution containing 0.5% of carboxymethylcellulose, at a concentration corresponding to 0.5 mg/kg of active substance (piroxicam).

[2] = system: carrageenin induced oedema; experiment: Carrageenin induced oedema test in rats (antiinflammatory activity); format: in vivo, male Crl:CD(SD) rats; conditions: oral, rat
Protocol: The antiinflammatory activity was determined by means of the carrageenin induced oedema test, according to the methodology reported by C. A. Winter et al in Proc. Soc. Exptl. […] As the test animals, male Crl:CD(SD) rats, weighing 150-170 g, were employed. The animals were housed under standard conditions and fastened for 18 hours before the beginning of the experiment. Water was available ad libitum.
The obtained results were expressed both as ED50 values, determined in correspondence of the activity peak on the regression line log. of the dosage-% inhibition of the oedema, and as ED30 values, calculated on the regression lines log. of the dosage-% inhibition of the oedema over the controls, determined as the mean value of AUC (area under Curve representing the development of the paw volume in the time).
In addition, it was determined the kinetic of the activity of the two formulations under investigation, by calculating the ED30 values at 2, 3, 4 and 6 hours since the carrageenin injection.

[3] = Plasma kinetics of piroxicam in the rabbit after oral administration; format: in vivo, male New Zealand White rabbits
Protocol: For these investigations, male New Zealand White rabbits, weighing 2.5-3.0 kg were employed. The animals were kept at constant temperature and fastened for the 17 hours preceeding the experiments. Water was given ad libitum. […] The determination of the plasma levels of the active principle, at the different times since the administration, was carried out by High Pressure Liquid Chromatography (HPLC).

[4] = Gastrolesive action in rats and therapeutic index UD0/ED30; conditions: in vivo, rat
Protocol: The gastrolesive action was tested on rats fastened for 18 hours, through macroscopical examination of the gastric mucosa, 5 hours after the administration of the substances under investigation. For each treatment, the regression lines log. of the dosage-mm of ulceration (single values for each animal) were determined. These lines allowed to calculate, for each compound, the UD0 values i.e., the maximum dosages at which no lesions are observed.
Finally, it was also determined the therapeutic index of the new compound piroxicam/β-cyclodextrin, in comparison with piroxicam. Said index was expressed as the ratio UD0 /ED30 wherein UD0 and ED30 are as above defined.

[5] = background; cited from earlier work
gastrointestinal mucosa = conditions: background; cited from earlier work
[6] = Dissolution test in water, Dissolution Tester, 25° C.
Protocol: 7.5 Grams of piroxicam/β-cyclodextrin were poured into 150 ml of water at 25° C. under stirring. At predetermined time intervals, samples of 5 ml of suspension were collected and filtered through 0.2μ. […] were diluted 1 to 500 with 0.1 N NaOH in methanol immediately after the filtration. The whole was again filtered through paper.
The amount of piroxicam in the solution was spectrophotometrically determined at 358 nm against a solution of 0.1 N NaOH in methanol.

[7] = Plasma kinetics of piroxicam in the dog after oral administration; set-up: species or system Beagle dogs; conditions: in vivo, 10 mg/kg of active ingredient
Protocol: The dogs were kept at constant temperature and fastened at least for 17 hours before the beginning of the experiment. Water was available ad libitum.
The two substances to be investigated were orally administered at a dosage corresponding to 10 mg/kg of active ingredient, according to a crossover scheme. The determination of the plasma concentrations of the active ingredient, at a different time intervals since the administration, was carried out by High Pressure Liquid Chromatography (HPLC).

[8] = plasma, 10 mg/kg of active ingredient, mean

CN1C(C(=O)Nc2ccccn2)=C(O)c2ccccc2S1(=O)=O [Piroxicam, 4-hydroxy-2-methyl-N-2-pyridyl-2H-1,2-benzothiazine-3-carboxamide-1,1-dioxide]
time of the activity peak (analgesic) [1]: 20 min | percentage of the maximum evidenced inhibition (writhing) at 5 minutes ([1]; 5 minutes after the administration): 78% | ED30 ([2]; Rat2, 2 h since carrageenin injection, read-out: ED30 at 2 h): 0.6 mg/kg | ED30 ([2]; 3 h since carrageenin injection, read-out: ED30 at 3 h): 1.6 mg/kg | ED30 ([2]; 4 h since carrageenin injection, read-out: ED30 at 4 h): 3.1 mg/kg | ED30 ([2]; 6 h since carrageenin injection, read-out: ED30 at 6 h): 9.7 mg/kg | ED30 ([2]; AUC of paw volume in time, dosage as piroxicam, read-out: Activity on AUC ED30): 2.5 mg/kg | ED50 ([2]; at the activity peak, dosage as piroxicam): 2.3 mg/kg | bioavailability [3]: almost complete bioavailability | Tmax ([3]; plasma, 10 mg/kg of active ingredient): 2.3 h | concentration at 0.5 h ([3]; plasma, 10 mg/kg of active ingredient, 0.50 h, mean): 4300 ng/mL | concentration at 1 h ([3]; plasma, 10 mg/kg of active ingredient, 1 h, mean): 7400 ng/mL | concentration at 2 h ([3]; plasma, 10 mg/kg of active ingredient, 2 h, mean): 10900 ng/mL | concentration at 4 h ([3]; plasma, 10 mg/kg of active ingredient, 4 h, mean): 10100 ng/mL | concentration at 8 h ([3]; plasma, 10 mg/kg of active ingredient, 8 h, mean): 6500 ng/mL | concentration at 24 h ([3]; plasma, 10 mg/kg of active ingredient, 24 h, mean): 300 ng/mL | AUC(0-t) at 2 h [3, 8]: 13200 ng·h/mL | AUC(0-t) at 24 h [3, 8]: 121000 ng·h/mL | Cmax [3, 8]: 11700 ng/mL | NOAEL at 5 h ([4]; 5 hours after administration, dosage as piroxicam, read-out: Gastrolesive activity UD0 (maximum dosage at which no lesions are observed)): 1.1 mg/kg | selectivity ratio ([4]; piroxicam = 1, read-out: Relative therapeutic index): 1 | selectivity ratio ([4]; read-out: Absolute therapeutic index (UD0/ED30)): 0.44 | solubility in water [5]: practically insoluble in water | effects on the gastrointestinal mucosa (gastrointestinal mucosa): responsible of lesive effects on the gastrointestinal mucosa | solubility at 0.5 h [6]: 111 µg/mL (≈ 335 µM) | Tmax [7]: 1.8 h | concentration at 0.25 h ([7]; 0.25 h, mean): 1000 ng/mL | concentration at 0.5 h ([7]; 0.50 h, mean): 2800 ng/mL | concentration at 1 h ([7]; 1 h, mean): 12700 ng/mL | concentration at 2 h ([7]; 2 h, mean): 19400 ng/mL | concentration at 4 h ([7]; 4 h, mean): 18900 ng/mL | concentration at 8 h ([7]; 8 h, mean): 14200 ng/mL | concentration at 24 h ([7]; 24 h, mean): 11500 ng/mL | concentration at 48 h ([7]; 48 h, mean): 9200 ng/mL | concentration at 72 h ([7]; 72 h, mean): 3000 ng/mL | AUC(0-t) at 2 h ([7]; mean): 20400 ng·h/mL | AUC(0-t) at 72 h ([7]; mean): 724000 ng·h/mL | Cmax ([7]; mean): 20000 ng/mL
